The target of assay [1] is T1, Angiotensin-umwandelnde Enzym (ACE) (Oryctolagus cuniculus, UniProt P12822).
T1 construct: Es wurde ein Kaninchen-Lungengewebe-Präparat; from tissue; host or cells: lung of adult male rabbits
T1 sequence (P12822 34-1310): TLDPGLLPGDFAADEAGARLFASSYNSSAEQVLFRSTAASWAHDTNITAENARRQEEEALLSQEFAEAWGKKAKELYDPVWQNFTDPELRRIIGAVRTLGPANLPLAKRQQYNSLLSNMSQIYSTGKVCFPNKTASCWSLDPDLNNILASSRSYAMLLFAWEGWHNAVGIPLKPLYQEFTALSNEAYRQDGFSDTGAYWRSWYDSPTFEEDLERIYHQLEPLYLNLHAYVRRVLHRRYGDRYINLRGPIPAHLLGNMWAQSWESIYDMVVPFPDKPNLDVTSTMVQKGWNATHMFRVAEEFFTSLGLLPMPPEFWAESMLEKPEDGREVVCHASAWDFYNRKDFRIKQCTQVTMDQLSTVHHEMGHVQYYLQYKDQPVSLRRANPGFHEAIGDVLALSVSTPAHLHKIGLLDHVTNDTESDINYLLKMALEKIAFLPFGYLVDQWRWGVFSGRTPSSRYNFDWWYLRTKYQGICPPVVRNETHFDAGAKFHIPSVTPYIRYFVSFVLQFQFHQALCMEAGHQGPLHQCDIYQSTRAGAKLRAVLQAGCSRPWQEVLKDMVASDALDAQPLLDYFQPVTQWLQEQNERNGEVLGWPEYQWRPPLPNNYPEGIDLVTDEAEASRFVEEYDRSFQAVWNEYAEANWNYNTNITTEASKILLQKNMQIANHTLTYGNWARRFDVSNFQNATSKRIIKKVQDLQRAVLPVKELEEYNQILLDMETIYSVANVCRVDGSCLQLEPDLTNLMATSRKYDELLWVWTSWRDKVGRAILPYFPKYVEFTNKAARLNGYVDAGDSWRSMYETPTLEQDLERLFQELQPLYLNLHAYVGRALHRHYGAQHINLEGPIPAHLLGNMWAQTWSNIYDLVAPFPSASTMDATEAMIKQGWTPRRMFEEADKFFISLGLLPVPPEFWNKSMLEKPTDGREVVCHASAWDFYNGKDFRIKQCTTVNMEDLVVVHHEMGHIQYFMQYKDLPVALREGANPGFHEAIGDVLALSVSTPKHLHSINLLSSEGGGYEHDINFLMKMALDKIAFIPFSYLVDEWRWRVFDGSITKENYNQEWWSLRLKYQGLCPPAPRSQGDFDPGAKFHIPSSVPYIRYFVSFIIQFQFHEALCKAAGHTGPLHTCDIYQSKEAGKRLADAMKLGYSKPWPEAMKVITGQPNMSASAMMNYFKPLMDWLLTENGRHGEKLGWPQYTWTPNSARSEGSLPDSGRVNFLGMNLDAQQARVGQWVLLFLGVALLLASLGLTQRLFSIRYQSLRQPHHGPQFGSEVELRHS
Put plainly: In vitro ACE inhibition (ACEI), rabbit lung tissue preparation, hippuryl-histidyl-leucine substrate, method of Cheung and Cushman. Format: biochemical, Kaninchen. An excerpt: Die in-vitro-Hemmung des Enzyms, welches das Angiotensin umwandelt, kann bei den Verbindungen dieser Erfindung analog zu Biochim. Biophys. Acta 293, 451 (1973) nachgewiesen werden. Gemäß dieser Methode werden die genannten Verbindungen in ungefähr 1 mMol-Konzentrationen in Phosphatpuffer aufgelöst. Zu 100 Mikroliter von Lösungen der Testverbindung in Phosphatpuffer, welche man auf die gewünschte Konzentration verdünnt, gibt man zuerst 100 Mikroliter von 5 millimolarem Hippuryl-histidylleucin in Phosphatpuffer und dann 50 µl des Angiotensin-umwandelnden Enzyms. Dieses Enzym wird aus Lungen von erwachsenen männlichen Kaninchen in Tris-Puffer, der Kalium- und Magnesiumchlorid und auch Rohrzucker enthält, hergestellt. Die genannten Lösungen werden 30 Minuten bei 37 °C inkubiert, und die weitere Reaktion wird durch Hinzufügen von 0,75 ml einer 0,6-normalen wäßrigen Natriumhydroxidlösung gestoppt. Dann gibt man bei Zimmertemperatur 100 Mikroliter einer 0,2 %-igen Lösung von o-Phthalaldehyd in Methanol und nach 10 Minuten 100 Mikroliter 6n-Chlorwasserstoffsäure dazu. Diese Proben werden in einem Spektrophotometer bei 360 nm mit Wasser verglichen, und ihre optische Dichte wird bestimmt. Diese Werte werden durch einen Konversionsfaktor einer Standard-Kurve angepaßt, wobei man die während der genannten Inkubation von 30 Minuten gebildete Histidyl-leucin-Menge in Nanomolen erhält. Die Ergebnisse werden, um den IC50-Wert zu bestimmen, gegenüber den Wirkstoff-Konzentrationen graphisch als Kurve dargestellt. Der IC50-Wert bedeutet diejenige WirkstoffKonzentration, welche die Hälfte der Aktivität einer Kontrollprobe, die keinen Wirkstoff enthält, ergibt. Als Illustration der Erfindung sei auf das « höher schmelzende 1-Carboxymethyl-3-(1-carboxy-3-phenylpro- pylamino)-2,3,4,5-tetrahydro-1H-[1]-benzazepin-2-on des Beispiels 9 und auf das entsprechende S,S-Enantiomere des Beispiels 19 hingewiesen, welche einen lC50-Wert von 5,2 × 10^-9 M bzw. 1,7 × 10^-9 M aufweisen. Das entsprechende « niedriger schmelzende » 1-Carboxymethyl-3-(1-carboxy-3-phenylpropy- iamino)-2,3,4,5-tetrahydro-1H-[1] benzazepin-2-on des Beispiels 8 zeigt einen lC50-Wert von 5,8 ×10^-8 M.
Die Prüfung der Wirkung von Verbindungen ist gemäss den Methoden für die Auswertung der Hemmung des Enzyms, welches das Angiotensin umwandelt [angiotensin converting enzyme = ACE] durchgeführt worden. In der biochemischen Beurteilung der in vitro ACE-Hemmung [ACE inhibition = A-CEI] wird die Aktivität einer Verbindung im Kaninchen-Lungengewebe bestimmt.
Es wurde ein Kaninchen-Lungengewebe-Präparat [Das and Saffer, J. Biol. Chem. 250 : 6762 (1975) für die Bestimmung von ACE nach der Methode von Cheung und Cushman [Cheung and Cushman, Biochim. Biophys. Acta 293, 451 (1973)] verwendet. In dieser Methode wird die Menge des Histidyl-leucins. welche aus einem synthetischen Substrat innerhalb einer Inkubation von 30 Minuten bei 37° freigesetzt wird, spektrophotometrisch bestimmt. Die lC50-Werte der ACE-Hemmung werden dann graphisch berechnet. Der lC50-Wert ist die Konzentration (in Mol) der getesteten Verbindung, welche die in Abwesenheit der Testsubstanz entstehende Menge des Histidyl-leucins um 50 % herabsetzt.

The test system of assay [2] is durch Angiotensin I (AI) hervorgerufene Blutdrucksteigerung. Put plainly: Inhibition of the angiotensin I (AI) induced blood pressure rise after intravenous administration of the test compound. Format: in vivo, Ratten. The note with it: for % AI Hemmung: rat, mean inhibition within 30 min after administration. An excerpt: Die Verbindungen der Erfindung zeigen nach intravenöser oder oraler Verabreichung eine hemmende Wirkung gegen die durch Angiotensin I hervorgerufene Blutdrucksteigerung auch an normotensiven Ratten. Das Angiotensin 1 wird durch das genannte Umwandlungsenzym zu der stark blutdrucksteigernden Substanz Angiotensin II hydrolysiert. Die Hemmung des genannten Enzyms blockiert die Bildung von Angiotensin II aus Angiotensin I. In dieser Weise wird die durch Angiotensin I provozierte Blutdrucksteigerung abgeschwächt.
Der entsprechende in-vivo-Test mit den intravenös verabreichten Verbindungen wird mit männlichen normotensiven Ratten, welche mit dem Natriumsalz der 5-Äthyl-5-(1-methylpropyl)-2-thiobarbitursäure narkotisiert sind, durchgeführt. Eine femorale Arterie und eine Wadenvene werden mit je einer Hohlnadel für die direkte Messung des Blutdrucks und für die intravenöse Verabreichung des Angiotensins I und einer erfindungsgemäßen Verbindung versehen. Nach der Stabilisierung des basalen Blutdrucks wird die Druckänderung nach drei, in 5-minütigen Intervallen, i. v. durchgeführten Reizungen mit 333 ng/kg Angiotensin I bestimmt. Solche Druckänderungen werden wieder nach 5,10,15, 30 und 60 Minuten nach intravenöser Verabreichung der zu prüfenden Verbindung bestimmt. Die letztgenannten Druckänderungen werden mit den Anfangswerten verglichen. Jede festgestellte Abnahme vom Ansprechen des Blutdrucks ist ein Hinweis auf die Hemmung des Enzyms, welches das Angiotensin I umwandelt. Als Illustration der Erfindung sei auf das « höher schmelzende » 1-Carboxymethyl-3-(1-äthoxycarbonyl-3-phenylpropylamino)-2,3,4,5-tetrahydro-1H-[1] benzazepin-2-on des Beispiels 1 und auf das entsprechende S,S-Enantiomere des Beispiels 12 hingewiesen. Diese hemmen vollständig die Blutdrucksteigerung nach Angiotensin I-Reizung während 30 Minuten nach intravenöser Verabreichung einer Dosis von 1 mg/kg pro Substanz.
In der in vivo Prüfungsmethode wird zuerst durch Verabreichung des Angiotensins I (AI) an das Versuchstier eine Blutdrucksteigerung hervorgerufen. Es wird dann die Hemmung der einzelnen Verbindungen auf diese Blutdrucksteigerung gemessen.
11. Methode der Hemmung der durch Angiotensin I (AI) hervorgerufenen Blutdrucksteigerung, durch intravenöse Verabreichung der Testverbindung (% AI-Hemmung)
In diesen Untersuchungen wird wie oben beschrieben, je ein Katheter in eine femurale Arterie und in eine Wadenvene der Ratte eingeführt.
Der arterielle Druck wurde von dem Arterienkatheter aus registriert, während man Angiotensin I (AI) und die einzelnen Testverbindungen durch den Venenkatheter injiziert hatte. Die Hemmung der durch Angiotensin I verursachten Blutdrucksteigerung ist als prozentuelle Abnahme des vor der Behandlung erhaltenen Kontrollwertes der Blutdrucksteigerung ausgedrückt und in der Tabelle als Durchschnittswert der Hemmung innerhalb 30 Minuten nach Verabreichung der Testsubstanz angegeben. (Siehe Tabelle Seite 41 f.)

Assay [3] relates to spontan hypertensiven Ratten. Briefly: Antihypertensive effect in spontaneously hypertensive rats, indirect measurement of systolic blood pressure (tail cuff), oral dosing. The conditions noted are these: peroral dose of 1 mg/kg. It counts as in vivo. An excerpt: Die in vivo blutdrucksenkende Wirkung wird entweder direkt mit einem Katheter, der in die femorale Arterie des Versuchstieres eingeführt ist, oder indirekt durch Sphygmomanometrie am Rattenschwanz, und einem Übertragungsinstrument registriert. Der Blutdruck wird vor und nach der Verabreichung des Wirkstoffes in mm Hg bestimmt.
So sind die antihypertensiven Wirkungen in spontan hypertensiven Ratten durch indirekte Messung des systolischen Blutdrucks nachweisbar. Nicht narkotisierte Ratten werden einzeln in Käfigen, welche ihre Bewegung einschränken, in eine leicht geheizte Kammer gebracht. Ein Puls-Sensor wird innerhalb einer aufblasbaren Manschette am Schwanz jeder Ratte angebracht. Die Manschette wird aufgeblasen, um die Schwanz-Arterie zu schließen. Der Druck in der Manschette wird kontinuierlich reduziert, und der systolische Druck entspricht demjenigen Druck in der Manschette, bei welchem die Pulswellen wieder auftreten. Nach der Registrierung von Kontrollwerten des Blutdrucks und der Herzfrequenz werden die Testverbindungen peroral einmal täglich an vier aufeinanderfolgenden Tagen verabreicht. Zusätzliche Blutdruckmessungen werden üblicherweise nach 2,0, 4,0 und 23,5 Stunden nach jeder täglichen Dosis vorgenommen. Die Werte werden mit denjenigen von Ratten, welche lediglich mit der Trägersubstanz behandelt worden sind, verglichen. […]

The mark [4] stands for this setting: ACE from rabbit lung, 30 min at 37 °C, read-out: IC50-Wert.
[5] abbreviates: rabbit lung tissue preparation, 30 min incubation at 37°, read-out: In vitro ACEI IC50.

The structures appear in SMILES notation. Structures can show the parent of a compound that is named as a salt. Where two headings read alike, the source gives them in different places.

For orientation: IC50 means the concentration at which inhibition is half-maximal.

`O=C(O)CN1C(=O)C(NC(CCc2ccccc2)C(=O)O)CCc2ccccc21` (single isomer, unassigned) [Beispiel 8, 1-Carboxymethyl-3-(1-carboxy-3-phenylpropylamino)-2,3,4,5-tetrahydro-1H-[1] benzazepin-2-on]: in assay [1] (setting [4]), the IC50 is 58 nM.

As to `O=C(O)CN1C(=O)C(NC(CCc2ccccc2)C(=O)O)CCc2ccccc21` (single isomer, unassigned) [Beispiel 9, 1-Carboxymethyl-3-(1-carboxy-3-phenylpropylamino)-2,3,4,5-tetrahydro-1H-[1]-benzazepin-2-on], the results for the IC50 in assay [1] (setting [4]) and in assay [1] (setting [5]) were 5.2 nM and 5 nM, respectively. Besides, the “% AI Hemmung” value was 40% in assay [2] (i.v. Dosis 0.03 mg/kg), 80% in assay [2] (i.v. Dosis 0.1 mg/kg) and 93% in assay [2] (i.v. Dosis 0.3 mg/kg).

For `CCOC(=O)[C@H](CCc1ccccc1)N[C@H]1CCc2ccccc2N(CC(=O)O)C1=O` [12 HCl Salz], the concentration for half-maximal inhibition (IC50) in assay [1] (setting [5]) worked out at 400 nM. Also, the “% AI Hemmung” value in assay [2] (i.v. Dosis 0.03 mg/kg) was 29%; in assay [2] (i.v. Dosis 0.06 mg/kg) it was 74%; in assay [2] (i.v. Dosis 0.1 mg/kg), 82%; in assay [2] (i.v. Dosis 0.3 mg/kg), 95%; in assay [2] (i.v. Dosis 1.0 mg/kg) it was 100%.

Regarding `CCOC(=O)[C@@H](CCc1ccccc1)N[C@H]1CCc2ccccc2N(CC(=O)O)C1=O` [Beispiel 5, 1-Carboxymethyl-3-(1-äthoxycarbonyl-3-phenylpropylamino)-2,3,4,5,-tetrahydro-1H-[1] benzazepin-2-on], the IC50 in assay [1] (setting [5]) was 200 nM. For the same compound, the “% AI Hemmung” value in assay [2] (i.v. Dosis 0.1 mg/kg) came out at 37%.

For `CCOC(=O)[C@H](CCc1ccccc1)N[C@H]1CCc2ccccc2N(CC(=O)O)C1=O` [Beispiel 12, 1-Carboxymethyl-3S-(1S-äthoxycarbonyl-3-phenylpropylamino)-2,3,4,5-tetrahydro-1H-[1] benzazepin-2-on], the “Blutdruck gesenkt (antihypertensiver Effekt)” value in assay [3] is given as 30 mm Hg. Further, the “Hemmung der Blutdrucksteigerung nach Angiotensin I-Reizung” value in assay [2] (1 mg/kg i.v., anaesthetised male normotensive rats, during 30 min after administration, 333 ng/kg angiotensin I) was “vollständig”.

Source of the values: patent EP0072352B1, “Benzazepin-2-ones, process for their preparation, pharmaceutical preparations containing these compounds and the compounds for therapeutical use” (CIBA-GEIGY AG, priority 1981, dated 1983).
